Measurements reported in US20090214529A9, “KINESIN INHIBITORS” (TaiGen Biotechnology Co., Ltd., priority 2007, published 2009).

System: tumor cell
Assay: Cytotoxicity assay (MTS)
Assay type: cell-based
Conditions: 72 h; incubation for three days; read-out: IC50, tumor cell growth inhibition (MTS)
Description: The efficacy of a test compound in inhibiting tumor cell growth was analyzed using a MTS assay. The MTS assay is a calorimetric method for the determination of viable cells in proliferation by using a tetrazolium compound (3-(4,5-dimethylthiazol-2-yl)-5-(3-[…])-2-(4-sulfophenyl)-2H-tetrazolium, inner salt; MTS) and an electron-coupling agent (phenazine methosulfate; PMS). The MTS reagent is converted by dehydrogenase enzymes in metabolically active cells into a formazan that is soluble in a tissue culture medium.
In this assay, tumor cell suspensions (30 μl/well) were seeded into 384-well flat-bottomed tissue culture plates at an appropriate density overnight. A fresh medium (3 μl/well) containing varying concentrations of a test compound or vehicle was added to the culture followed by incubation for three days. At the end of the incubation, all plates were processed simultaneously as follows: The culture medium was aspirated, a MTS cell proliferation assay (Promega) solution (30 μl/well) was added, and the plates were incubated at 37° C. for about 2 hours. Absorbance (a parameter proportional to the cell mass) was measured at 490 nm using a Multiskan (Thermo Electron Corporation, Waltham, Mass.). Inhibition effects were expressed as corrected T/C values for each test compound according to the following equation:
T/C=(T−Blank)/(C−Blank)×100(%),
where T is the mean absorbance of the treated cells, C is the mean absorbance of the controls, and Blank is the mean absorbance of the cell free well.

Compound | IC50
Cc1ccc(C(=O)N(CCCN)C(c2nc3cc4[nH]c(Br)cc4cc3c(=O)n2Cc2cccs2)C(C)C)cc1 (centres unmarked) [Compound 1] | < 30 µM
Cc1ccc(C(=O)N(CCCN)C(c2nc3cc4[nH]ccc4cc3c(=O)n2Cc2cccs2)C(C)C)cc1 (centres unmarked) [Compound 2] | < 30 µM
Cc1ccc(C(=O)N(CCCN)C(c2nc3cc4ccccc4cc3c(=O)n2Cc2ccccc2)C(C)C)cc1 (centres unmarked) [Compound 3] | < 30 µM
Cc1ccc(C(=O)N(CCCN)C(c2nc3c(Br)c4ccccc4cc3c(=O)n2Cc2ccccc2)C(C)C)cc1 (centres unmarked) [Compound 4] | < 30 µM
Cc1ccc(C(=O)N(CCCN)C(c2nc3cc4ccccc4cc3c(=O)n2Cc2ccc(Cl)s2)C(C)C)cc1 (centres unmarked) [Compound 5] | < 30 µM
Cc1ccc(C(=O)N(CCCN)C(c2nc3c(Br)c4ccccc4cc3c(=O)n2Cc2ccc(Cl)s2)C(C)C)cc1 (centres unmarked) [Compound 6] | < 30 µM
Cc1ccc(CN(CCCN)C(c2nc3cc4ccccc4cc3c(=O)n2Cc2ccccc2)C(C)C)cc1 (centres unmarked) [Compound 7] | < 30 µM
Cc1ccc(C(=O)N(CCCN)C(c2nc3c(C#N)c4ccccc4cc3c(=O)n2Cc2ccc(Cl)s2)C(C)C)cc1 (centres unmarked) [Compound 8] | < 30 µM
Cc1ccc(C(=O)N(CCCN)C(c2nc3c(I)c4ccccc4cc3c(=O)n2Cc2ccccc2)C(C)C)cc1 (centres unmarked) [Compound 9] | < 30 µM
Cc1ccc(C(=O)N(CCCN)C(c2nc3nc4ccccc4nc3c(=O)n2Cc2ccccc2)C(C)C)cc1 (centres unmarked) [Compound 10] | < 30 µM
CCC(c1nc2nc3ccccc3cc2c(=O)n1Cc1ccccc1)N(CCCN)C(=O)c1ccc(C)cc1 (centres unmarked) [Compound 11] | < 30 µM
CCC(c1nc2nc3cc(Cl)ccc3cc2c(=O)n1Cc1ccccc1)N(CCCN)C(=O)c1ccc(C)cc1 (centres unmarked) [Compound 12] | < 30 µM
Cc1ccc(C(=O)N(CCCN)C(c2nc3c(oc4ccccc43)c(=O)n2Cc2ccccc2)C(C)C)cc1 (centres unmarked) [Compound 13] | < 30 µM
Cc1ccc(C(=O)N(CCCN)C(c2nc3c(oc4ccccc43)c(=O)n2Cc2ccc(Br)s2)C(C)C)cc1 (centres unmarked) [Compound 14] | < 30 µM
Cc1ccc(C(=O)N(CCCN)C(c2nc3c(oc4ccccc43)c(=O)n2Cc2cccs2)C(C)C)cc1 (centres unmarked) [Compound 15] | < 30 µM
Cc1ccc(C(=O)N(CCCN)C(c2nc3c(oc4ccccc43)c(=O)n2Cc2ccc(Cl)s2)C(C)C)cc1 (centres unmarked) [Compound 16] | < 30 µM
CCC(c1nc2c(oc3ccccc32)c(=O)n1Cc1ccccc1)N(CCCN)C(=O)c1ccc(C)cc1 (centres unmarked) [Compound 17] | < 30 µM
CCC(c1nc2c(oc3ccccc32)c(=O)n1Cc1ccccc1)N(CCCN(C)C)C(=O)c1ccc(C)cc1 (centres unmarked) [Compound 19] | < 30 µM
CCC(c1nc2c(oc3ccccc32)c(=O)n1Cc1ccccc1)N(CCCN(C)C)C(=O)c1ccc(Br)cc1 (centres unmarked) [Compound 20] | < 30 µM
CCC(c1nc2c(oc3ccccc32)c(=O)n1Cc1ccccc1)N(CCN)C(=O)c1ccc(C)cc1 (centres unmarked) [Compound 21] | < 30 µM
CCC(c1nc2c(oc3ccccc32)c(=O)n1Cc1ccccc1)N(CCCCN)C(=O)c1ccc(C)cc1 (centres unmarked) [Compound 22] | < 30 µM
CCC(c1nc2c(oc3ccccc32)c(=O)n1Cc1ccccc1)N(CCN(C)C)C(=O)c1ccc(Br)cc1 (centres unmarked) [Compound 23] | < 30 µM
CCC(c1nc2c(oc3ccccc32)c(=O)n1Cc1ccccc1)N(CCCCN(C)C)C(=O)c1ccc(Br)cc1 (centres unmarked) [Compound 24] | < 30 µM
Cc1ccc(C(=O)N(CCN)C(c2nc3c(oc4ccccc43)c(=O)n2Cc2ccccc2)C(C)C)cc1 (centres unmarked) [Compound 25] | < 30 µM
Cc1ccc(C(=O)N(NCCN)C(c2nc3c(oc4ccccc43)c(=O)n2Cc2ccccc2)C(C)C)cc1 (centres unmarked) [Compound 26] | < 30 µM

Compound | IC50
Cc1ccc(C(=O)N(CCCN)C(c2nc3c(oc4ccccc43)c(=O)n2Cc2ccccc2F)C(C)C)cc1 (centres unmarked) [Compound 27] | < 30 µM
CC(C)C(c1nc2c(oc3ccccc32)c(=O)n1Cc1ccccc1F)N(CCCN)C(=O)c1ccc(Br)cc1 (centres unmarked) [Compound 28] | < 30 µM
Cc1ccc(C(=O)N(CCCN)C(c2nc3c(oc4ccccc43)c(=O)n2Cc2ccccc2O)C(C)C)cc1 (centres unmarked) [Compound 29] | < 30 µM
Cc1ccc(C(=O)N(CCCN)C(c2nc3c(oc4ccc(C(F)(F)F)cc43)c(=O)n2Cc2ccccc2)C(C)C)cc1 (centres unmarked) [Compound 30] | < 30 µM
CCC(c1nc2c(oc3ccc(Cl)cc32)c(=O)n1Cc1ccccc1)N(CCCN)C(=O)c1ccc(C)cc1 (centres unmarked) [Compound 31] | < 30 µM
CCC(c1nc2c(oc3ccc(Cl)cc32)c(=O)n1Cc1ccccc1)N(CCN)C(=O)c1ccc(C)cc1 (centres unmarked) [Compound 32] | < 30 µM
CCC(c1nc2c(oc3ccc(Cl)cc32)c(=O)n1Cc1ccccc1)N(CCCN)S(=O)(=O)c1ccc(C)cc1 (centres unmarked) [Compound 33] | < 30 µM
CCC(c1nc2c(oc3ccc(Cl)cc32)c(=O)n1Cc1ccccc1)N(CCN)S(=O)(=O)c1ccc(C)cc1 (centres unmarked) [Compound 34] | < 30 µM
Cc1ccc(C(=O)N(CCCN)C(c2nc3c(oc4ccc(Cl)cc43)c(=O)n2Cc2ccccc2)C(C)C)cc1 (centres unmarked) [Compound 35] | < 30 µM
Cc1ccc(C(=O)N(CCN)C(c2nc3c(oc4ccc(Br)cc43)c(=O)n2Cc2ccccc2)C(C)C)cc1 (centres unmarked) [Compound 37] | < 30 µM
Cc1ccc(C(=O)N(CCCN)C(c2nc3c(oc4ccc(Br)cc43)c(=O)n2Cc2ccccc2)C(C)C)cc1 (centres unmarked) [Compound 38] | < 30 µM
Cc1ccc(C(=O)N(CCN)C(c2nc3c(oc4ccc(C)cc43)c(=O)n2Cc2ccccc2)C(C)C)cc1 (centres unmarked) [Compound 39] | < 30 µM
Cc1ccc(C(=O)N(CCCN)C(c2nc3c(oc4ccc(C)cc43)c(=O)n2Cc2ccccc2)C(C)C)cc1 (centres unmarked) [Compound 40] | < 30 µM
Cc1ccc(C(=O)N(CCCN)C(c2nc3c(oc4ccc(Cl)cc43)c(=O)n2Cc2ccc(Br)s2)C(C)C)cc1 (centres unmarked) [Compound 41] | < 30 µM
Cc1ccc(C(=O)N(CCCN)C(c2nc3c(oc4ccc(Cl)cc43)c(=O)n2Cc2cccs2)C(C)C)cc1 (centres unmarked) [Compound 43] | < 30 µM
Cc1ccc(C(=O)N(CCN)C(c2nc3c(oc4ccc(Cl)cc43)c(=O)n2Cc2cccs2)C(C)C)cc1 (centres unmarked) [Compound 44] | < 30 µM
Cc1ccc(C(=O)N(CCCN)C(c2nc3c(oc4ccc(Cl)cc43)c(=O)n2Cc2ccc(Cl)s2)C(C)C)cc1 (centres unmarked) [Compound 45] | < 30 µM
Cc1ccc(C(=O)N(CCN)C(c2nc3c(oc4ccc(Cl)cc43)c(=O)n2Cc2ccc(Cl)s2)C(C)C)cc1 (centres unmarked) [Compound 46] | < 30 µM
Cc1ccc(C(=O)N(CCCN)C(c2nc3c(oc4ccc(Cl)cc43)c(=O)n2Cc2ccc(C#N)s2)C(C)C)cc1 (centres unmarked) [Compound 47] | < 30 µM
Cc1ccc(C(=O)N(CCN)C(c2nc3c(oc4ccc(Cl)cc43)c(=O)n2Cc2ccc(C#N)s2)C(C)C)cc1 (centres unmarked) [Compound 48] | < 30 µM
Cc1ccc(C(=O)N(CCN)C(c2nc3c(oc4ccc(Cl)cc43)c(=O)n2Cc2cc(Br)cs2)C(C)C)cc1 (centres unmarked) [Compound 49] | < 30 µM
CCCC(c1nc2c(oc3ccccc32)c(=O)n1Cc1ccccc1)N(CCCN)C(=O)c1ccc(C)cc1 (centres unmarked) [Compound 50] | < 30 µM
CCCC(c1nc2c(oc3ccccc32)c(=O)n1Cc1ccccc1)N(CCN)C(=O)c1ccc(C)cc1 (centres unmarked) [Compound 51] | < 30 µM
Cc1ccc(C(=O)N(CCN)C(c2nc3c(oc4ccc(Cl)cc43)c(=O)n2Cc2ccccc2)C(C)C)cn1 (centres unmarked) [Compound 56] | < 30 µM
CCCC(c1nc2c(oc3ccccc32)c(=O)n1Cc1ccccc1)N(CC(O)CN)C(=O)c1ccc(C)cc1 (centres unmarked) [Compound 58] | < 30 µM
